This note sets out measurements from patent US10208089B2, “Modulation of complement activity” (priority 2014, dated 2019).

Structures are written as SMILES. pIC50: −log10 of the molar value. Starred links: 1 amine or outer side, 2 acyl side, 3 side chain; linkers in the order of their positions; H or OH if unused. Positions of bridges follow the written chain, without caps; N, C: chain ends. Non-standard residues stand in square brackets, D forms with d. Residues, ends and D or L forms follow the SMILES beside them. Ala(1H-tetrazol-5-yl) = N[C@@H](Cc1nnn[nH]1)C(=O)O; Trp(7-aza) = N[C@@H](Cc1c[nH]c2ncccc12)C(=O)O; mXylylene = c1cc(C[*:1])cc(C[*:2])c1; pXylylene = c1cc(C[*:2])ccc1C[*:1]; Chg = N[C@H](C(=O)O)C1CCCCC1; Phg = N[C@H](C(=O)O)c1ccccc1; Tle = CC(C)(C)[C@H](N)C(=O)O; NMeS = CN[C@@H](CO)C(=O)O; Nva = CCC[C@H](N)C(=O)O

This experiment concerns the target C5 (Homo sapiens, UniProt P01031). The experiment can be described thus: Human hemolysis assay (RBC lysis assay using complete human sera). On the set-up: with complete human sera (Complement Technology, Tyler Tex.) and polypeptides; tissue Complement Technology, Tyler Tex; host or cells: complete human serum. Format: cell-based.
[1] abbreviates: inhibition of lysis of antibody-sensitized sheep erythrocytes, complete human sera.

Sequence of C5 (P01031 19-1676): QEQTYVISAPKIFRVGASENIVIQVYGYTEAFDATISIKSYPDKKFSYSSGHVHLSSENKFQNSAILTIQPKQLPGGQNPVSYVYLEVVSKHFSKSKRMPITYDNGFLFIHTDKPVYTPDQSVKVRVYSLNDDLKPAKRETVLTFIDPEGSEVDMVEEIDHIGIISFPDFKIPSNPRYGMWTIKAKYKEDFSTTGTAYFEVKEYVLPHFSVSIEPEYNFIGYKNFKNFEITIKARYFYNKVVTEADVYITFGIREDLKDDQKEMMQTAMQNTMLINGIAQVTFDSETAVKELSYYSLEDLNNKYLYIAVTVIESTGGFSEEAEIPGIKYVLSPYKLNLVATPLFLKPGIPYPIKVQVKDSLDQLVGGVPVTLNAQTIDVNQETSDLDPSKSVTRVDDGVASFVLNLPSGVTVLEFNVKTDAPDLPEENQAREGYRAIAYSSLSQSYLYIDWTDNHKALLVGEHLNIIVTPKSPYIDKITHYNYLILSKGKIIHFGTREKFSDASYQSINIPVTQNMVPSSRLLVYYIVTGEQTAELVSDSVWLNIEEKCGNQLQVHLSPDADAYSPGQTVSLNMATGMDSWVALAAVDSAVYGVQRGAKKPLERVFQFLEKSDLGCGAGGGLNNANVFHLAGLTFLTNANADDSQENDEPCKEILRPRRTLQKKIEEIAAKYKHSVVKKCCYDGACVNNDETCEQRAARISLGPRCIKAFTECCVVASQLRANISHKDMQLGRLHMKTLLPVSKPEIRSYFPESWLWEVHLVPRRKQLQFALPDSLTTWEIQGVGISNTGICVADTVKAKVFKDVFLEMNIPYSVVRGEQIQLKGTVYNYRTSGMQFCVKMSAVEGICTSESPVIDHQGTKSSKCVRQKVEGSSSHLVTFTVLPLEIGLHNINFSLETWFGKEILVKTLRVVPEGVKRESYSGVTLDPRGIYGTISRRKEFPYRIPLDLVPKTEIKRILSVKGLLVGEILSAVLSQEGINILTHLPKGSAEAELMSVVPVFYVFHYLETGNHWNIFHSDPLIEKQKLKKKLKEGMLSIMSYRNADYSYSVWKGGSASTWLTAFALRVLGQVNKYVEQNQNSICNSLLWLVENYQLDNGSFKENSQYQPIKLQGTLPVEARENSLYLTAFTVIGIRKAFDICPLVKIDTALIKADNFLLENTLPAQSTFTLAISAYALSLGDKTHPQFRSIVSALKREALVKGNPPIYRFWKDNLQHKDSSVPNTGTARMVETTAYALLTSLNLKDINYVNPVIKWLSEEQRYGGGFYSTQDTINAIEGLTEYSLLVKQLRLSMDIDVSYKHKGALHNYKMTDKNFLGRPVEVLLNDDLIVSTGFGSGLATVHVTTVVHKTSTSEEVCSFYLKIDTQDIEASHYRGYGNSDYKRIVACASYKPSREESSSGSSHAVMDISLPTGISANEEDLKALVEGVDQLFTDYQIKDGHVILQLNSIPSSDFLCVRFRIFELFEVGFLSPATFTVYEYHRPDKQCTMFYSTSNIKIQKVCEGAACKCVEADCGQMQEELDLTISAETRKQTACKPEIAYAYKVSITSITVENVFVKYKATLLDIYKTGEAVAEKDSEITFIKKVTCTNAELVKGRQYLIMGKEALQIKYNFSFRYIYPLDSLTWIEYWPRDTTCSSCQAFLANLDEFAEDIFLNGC

By pIC50 is commonly meant the IC50 on a negative log10 scale, so that one unit is a factor of ten. With `CCC[C@H](NC(C)=O)C(=O)N[C@@H](CCC)C(=O)N[C@@H](Cc1ccc(O)cc1)C(=O)N[C@@H](CCC(=O)O)C(=O)N[C@@H](CC(N)=O)C(=O)N[C@H](C(=O)N[C@@H](Cc1ccc(O)cc1)C(=O)N[C@@H](Cc1c[nH]c2ncccc12)C(=O)N[C@@H](CCC(=O)O)C(=O)N[C@@H](Cc1ccc(O)cc1)C(=O)N1CCC[C@H]1C(=O)N[C@H](C(=O)N[C@@H](CCC)C(=O)N[C@@H](CCCCN)C(N)=O)C1CCCCC1)C(C)(C)C` [Compound R3072, Ac-Nvl-Nvl-Y-E-N-Tbg-Y-azaTrp-E-Y-P-Chg-Nvl-K-NH2] (Ac-[Nva][Nva]YEN[Tle]Y[Trp(7-aza)]EYP[Chg][Nva]K-NH2), the pIC50 under setting [1] was 7.57.

Consider `CSCC[C@H](N)C(=O)N[C@H]1CSCc2cccc(c2)CSC[C@@H](C(=O)N[C@@H](CCC(=O)O)C(=O)N[C@H](C(=O)N[C@@H](CCCNC(=N)N)C(=O)N[C@@H](Cc2c[nH]c3ccccc23)C(=O)N[C@@H](CCC(=O)O)C(=O)N[C@@H](Cc2ccc(O)cc2)C(N)=O)C(C)C)NC(=O)[C@H](Cc2ccc(O)cc2)NC(=O)[C@H](CCCNC(=N)N)NC(=O)[C@H](CCC(=O)O)NC(=O)[C@H](CO)NC1=O` [Compound R3020, [mXylyl(2,7)]M-C-S-E-R-Y-C-E-V-R-W-E-Y-NH2] (H-MCSERYCEVRWEY-NH2; linker 2-7 via mXylylene), for which, under setting [1], the pIC50 is 7.61.

Consider `CCC[C@H](NC(=O)[C@@H]1CSCc2ccc(cc2)CSC[C@H](NC(=O)[C@H](CCC)NC(C)=O)C(=O)N[C@@H](C2CCCCC2)C(=O)N[C@@H]([C@@H](C)O)C(=O)N[C@@H](Cc2c[nH]c3ncccc23)C(=O)N[C@@H](CCC(=O)O)C(=O)N[C@@H](Cc2ccc(O)cc2)C(=O)N(C)[C@@H](CO)C(=O)N[C@@H](Cc2c[nH]cn2)C(=O)N1)C(N)=O` [Compound R3058, [pXylyl(2,10)]Ac-Nvl-C-Chg-T-azaTrp-E-Y-(N-Me)S-H-C-Nvl-NH2] (Ac-[Nva]C[Chg]T[Trp(7-aza)]EY[NMeS]HC[Nva]-NH2; linker 2-10 via pXylylene), for which, under setting [1], the pIC50 was under 5.00.

In the case of `CCC[C@H](NC(=O)[C@@H]1CSCc2cccc(c2)CSC[C@H](NC(=O)[C@H](CCC)NC(C)=O)C(=O)N[C@@H](c2ccccc2)C(=O)N[C@@H]([C@@H](C)O)C(=O)N[C@@H](Cc2c[nH]c3ccccc23)C(=O)N[C@@H](Cc2nnn[nH]2)C(=O)N[C@@H](Cc2ccc(O)cc2)C(=O)N(C)[C@@H](CO)C(=O)N[C@@H](Cc2c[nH]cn2)C(=O)N1)C(N)=O` [Compound R3131, [mXylyl(2,10)]Ac-Nvl-C-Phg-T-W-Asp(T)-Y-(N-Me)S-H-C-Nvl-NH2] (Ac-[Nva]C[Phg]TW[Ala(1H-tetrazol-5-yl)]Y[NMeS]HC[Nva]-NH2; linker 2-10 via mXylylene), the pIC50 (7-azatryptophan variant polypeptides of R3008, inhibition of red blood cell lysis) was under 4.00 and the pIC50 under setting [1] is under 4.00.

Regarding `CC(=O)N[C@H]1CSCc2cccc(c2)CSC[C@@H](C(=O)N[C@@H](CC(=O)O)C(=O)N[C@H](C(=O)N[C@@H](Cc2ccc(O)cc2)C(=O)N[C@@H](Cc2c[nH]c3ccccc23)C(=O)N[C@@H](CCC(=O)O)C(=O)N[C@@H](Cc2ccc(O)cc2)C(=O)N2CCC[C@H]2C(N)=O)C(C)(C)C)NC(=O)[C@H](Cc2ccccc2)NC(=O)[C@H](CCCNC(=N)N)NC(=O)[C@H](CCC(=O)O)NC(=O)[C@H](C(C)C)NC1=O` [Compound R3143, [mXyly1(1,6)]Ac-C-V-E-R-F-C-D-Tbg-Y-W-E-Y-P-NH2] (Ac-CVERFCD[Tle]YWEYP-NH2; linker 1-6 via mXylylene), the pIC50 under setting [1] is 7.73.

As for `CSCC[C@H](N)C(=O)N[C@H]1CSCc2cccc(c2)CSC[C@@H](C(=O)N[C@@H](CC(=O)O)C(=O)N[C@H](C(=O)N[C@@H](Cc2ccc(O)cc2)C(=O)N[C@@H](Cc2c[nH]c3ccccc23)C(N)=O)C(C)C)NC(=O)[C@H](Cc2ccccc2)NC(=O)[C@H](CCCNC(=N)N)NC(=O)[C@H](CCC(=O)O)NC(=O)[C@H](C(C)C)NC1=O` [Compound R3044, [mXylyl(2,7)]M-C-V-E-R-F-C-D-V-Y-W-NH2] (H-MCVERFCDVYW-NH2; linker 2-7 via mXylylene), the pIC50 is under 4.30 (C-terminally truncated polypeptide variants of R3021, inhibition of red blood cell lysis) and under 4.30 under setting [1].
